Measurements from the supplement of paper PMC10307832.

How the values were obtained:
Test in all cases: relative viability (nuclei count vs DMSO), 5 days (fraction); higher = more cells survive
[1] = compound: CC1=CC(=CC=C1)NC2=NC(=CS2)C3=CC=NC=C3 + C[C@@H](Oc1cc(-c2cnn(C3CCNCC3)c2)cnc1N)c1c(Cl)ccc(F)c1Cl [Crizotinib] (partner 1 µM)
In short: (§1)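 Medians of duplicate plates are given as relative viability. That measure is the nuclei count in treated wells divided by the count in vehicle wells. Counts were taken on 4× images of lung cancer cell lines in 1536-well plates, 5 days after pin-tool dosing the day after seeding with one drug alone or a fixed anchor-drug dose plus five library-drug doses (not always all listed) in √10 steps.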

[2] = compound: CC1=CC(=CC=C1)NC2=NC(=CS2)C3=CC=NC=C3 + Nc1ncn([C@H]2C[C@H](O)[C@@H](CO)O2)c(=O)n1 [Decitabine] (partner 2 µM)
In short: as §1

Masitinib + Tozasertib = compound: Cc1ccc(NC(=O)c2ccc(CN3CCN(C)CC3)cc2)cc1Nc1nc(-c2cccnc2)cs1 [Masitinib] + Cc1cc(Nc2cc(N3CCN(C)CC3)nc(Sc3ccc(NC(=O)C4CC4)cc3)n2)n[nH]1 [Tozasertib] (partner 0.1 µM)
In short: as §1

Masitinib + Vorinostat = compound: Cc1ccc(NC(=O)c2ccc(CN3CCN(C)CC3)cc2)cc1Nc1nc(-c2cccnc2)cs1 [Masitinib] + O=C(CCCCCCC(=O)Nc1ccccc1)NO [Vorinostat] (partner 1 µM)
In short: as §1

Row | Cell Line | relative viability ([1]; first compound 0.08 µM) | relative viability ([1]; first compound 0.253 µM) | relative viability ([1]; first compound 0.8 µM) | relative viability ([1]; first compound 8 µM) | relative viability ([2]; first compound 0.08 µM) | relative viability ([2]; first compound 0.253 µM) | relative viability ([2]; first compound 0.8 µM) | relative viability ([2]; first compound 2.53 µM) | relative viability ([2]; first compound 8 µM) | relative viability (Masitinib + Tozasertib; first compound 0.01 µM) | relative viability (Masitinib + Tozasertib; first compound 0.03162 µM) | relative viability (Masitinib + Tozasertib; first compound 0.1 µM) | relative viability (Masitinib + Tozasertib; first compound 0.3162 µM) | relative viability (Masitinib + Tozasertib; first compound 1 µM) | relative viability (Masitinib + Vorinostat; first compound 0.01 µM) | relative viability (Masitinib + Vorinostat; first compound 0.03162 µM) | relative viability (Masitinib + Vorinostat; first compound 0.1 µM) | relative viability (Masitinib + Vorinostat; first compound 0.3162 µM) | relative viability (Masitinib + Vorinostat; first compound 1 µM) | relative viability ([1]; first compound 2.53 µM)
1 | LK-2 | 0.261 | 0.197 | 0.229 | 0.246 | 0.298 | 0.273 | 0.304 | 0.204 | 0.563 | 0.177 | 0.167 | 0.177 | 0.158 | 0.165 | 0.246 | 0.265 | 0.393 | 0.225 | 0.369 | –
2 | NCI-H1563 | 0.958 | 0.916 | 0.887 | 0.86 | – | – | – | – | – | – | – | – | – | – | – | – | – | – | – | 0.909
3 | COR-L23 | 0.553 | 0.483 | 0.487 | 0.583 | 0.404 | 0.378 | 0.429 | 0.379 | 0.388 | 0.207 | 0.164 | 0.168 | 0.124 | 0.15 | 0.532 | 0.411 | 0.435 | 0.46 | 0.373 | 0.646
4 | ABC-1 | 0.851 | 0.893 | 1.03 | 1.19 | 1.01 | – | 1.23 | 0.933 | 0.626 | 0.223 | 0.163 | 0.168 | 0.226 | 0.18 | 1.05 | 0.997 | 1.44 | 1.15 | 0.877 | 0.934
5 | SW 900 | – | – | – | – | 0.443 | 0.381 | 0.353 | 0.389 | 0.441 | 0.58 | 0.608 | 0.542 | 0.442 | 0.455 | 0.48 | 0.502 | 0.375 | 0.259 | 0.505 | –
6 | PC-14 | 0.87 | 0.881 | 0.821 | 0.695 | 0.174 | 0.186 | 0.187 | 0.177 | 0.217 | 0.5 | 0.563 | 0.512 | 0.482 | 0.478 | 0.716 | 0.79 | 0.767 | 0.691 | 0.865 | 0.951
7 | NCI-H1648 | – | – | – | – | 0.345 | 0.42 | 0.496 | 0.356 | 0.376 | 0.477 | – | 0.452 | 0.397 | 0.431 | 0.471 | 0.401 | 0.454 | – | 0.555 | –
8 | A549 | 0.75 | 0.73 | 0.776 | 0.627 | 0.281 | 0.173 | 0.284 | 0.275 | 0.256 | – | – | – | – | – | – | – | – | – | – | 0.735
9 | A-427 | 0.851 | 0.944 | 0.751 | 0.692 | 0.558 | 0.544 | 0.547 | 0.548 | 0.546 | – | 0.214 | – | 0.171 | 0.227 | 0.608 | 0.827 | 0.791 | 0.826 | 0.827 | –
10 | NCI-H1915 | 0.84 | 0.784 | 0.838 | 0.8 | 0.244 | 0.277 | 0.262 | 0.276 | 0.261 | – | 0.453 | – | 0.44 | 0.387 | – | 0.488 | – | 0.505 | 0.541 | 0.87
11 | LCLC-97TM1 | – | – | 0.744 | 0.42 | 0.204 | 0.204 | 0.233 | 0.254 | 0.245 | – | 0.38 | 0.261 | 0.247 | 0.286 | 0.534 | 0.778 | 0.472 | 0.887 | 0.712 | 0.366
12 | NCI-H1734 | 0.665 | 0.667 | 0.635 | 0.622 | 0.446 | 0.417 | 0.457 | 0.507 | 0.463 | 0.285 | 0.27 | 0.318 | 0.276 | 0.272 | 0.751 | 0.756 | 0.773 | 0.779 | 0.794 | 0.653
13 | LCLC-103H | 0.918 | 0.924 | 0.902 | 0.888 | 0.72 | 0.664 | 0.672 | 0.665 | 0.573 | 0.43 | 0.497 | 0.506 | 0.443 | 0.434 | – | 0.778 | 0.666 | 0.778 | 0.761 | 1.02
14 | NCI-H1703 | 0.73 | 1.01 | 0.683 | 0.799 | – | – | – | – | – | – | – | – | – | – | – | – | – | – | – | 0.878
15 | Calu-6 | 0.698 | 0.639 | 0.619 | 0.727 | – | – | – | – | – | – | – | – | – | – | – | – | – | – | – | 0.634
16 | NCI-H2342 | – | – | – | – | 0.691 | 0.773 | 0.657 | 0.77 | 0.761 | 0.464 | 0.51 | 0.523 | 0.514 | 0.469 | 0.789 | 0.671 | 0.829 | 0.856 | 0.83 | –
17 | EBC-1 | 0.176 | 0.218 | 0.198 | 0.163 | – | – | – | – | – | – | – | – | – | – | – | – | – | – | – | 0.17
18 | NCI-H522 | – | – | – | – | 0.702 | 0.63 | 0.708 | 0.801 | 0.677 | 0.589 | – | 0.631 | 0.615 | 0.582 | 0.822 | 0.904 | 1.07 | 1.06 | 0.821 | –
19 | IA-LM | 0.519 | 0.581 | 0.86 | 0.466 | – | – | – | – | – | – | – | – | – | – | 0.737 | 0.747 | 1.06 | 1.19 | 0.957 | 0.563
20 | NCI-H1793 | – | – | – | – | 0.513 | 0.481 | 0.489 | 0.472 | 0.238 | 0.337 | 0.309 | 0.33 | 0.238 | 0.256 | 0.828 | 0.66 | 0.712 | 0.379 | 0.687 | –
21 | NCI-H1299 | 0.89 | 0.891 | 0.924 | 0.804 | – | – | – | – | – | – | – | – | – | – | – | – | – | – | – | 0.931
22 | NCI-H2228 | 0.318 | 0.334 | 0.4 | 0.352 | – | – | – | – | – | 0.242 | 0.199 | 0.232 | 0.217 | 0.221 | 0.604 | 0.59 | 0.693 | 0.593 | 0.665 | 0.457
23 | CAL-12T | 0.547 | 0.634 | 0.612 | 0.604 | – | – | – | – | – | 0.303 | 0.282 | 0.307 | 0.192 | 0.234 | 0.942 | 0.756 | 0.904 | 0.986 | 0.684 | 0.62
24 | NCI-H1792 | 0.99 | 0.767 | 0.886 | 0.947 | 0.479 | 0.384 | 0.481 | 0.548 | 0.449 | – | – | – | – | – | – | – | – | – | – | 0.815
